Measurements as given in PubChem BioAssay (NCI).
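Results reflect a 48-hour exposure of cells in 96-well plates to compound at five concentrations. Here, GI50 denotes the concentration required for 50% inhibition of growth. The concentration for full growth arrest is given as TGI.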

Assays:
Assay in all cases: NCI tumour cell line growth inhibition, 48 h
786-0 renal = tested on: 786-0 renal
A498 renal = tested on: A498 renal
A549 NSCLC = tested on: A549 NSCLC
ACHN renal = tested on: ACHN renal
BT-549 breast = tested on: BT-549 breast
CAKI-1 renal = tested on: CAKI-1 renal
CCRF-CEM leukemia = tested on: CCRF-CEM leukemia
COLO 205 colon = tested on: COLO 205 colon
DU-145 prostate = tested on: DU-145 prostate
EKVX NSCLC = tested on: EKVX NSCLC
HCC-2998 colon = tested on: HCC-2998 colon
HCT-116 colon = tested on: HCT-116 colon
HCT-15 colon = tested on: HCT-15 colon
HL-60(TB) leukemia = tested on: HL-60(TB) leukemia
HOP-62 NSCLC = tested on: HOP-62 NSCLC
HOP-92 NSCLC = tested on: HOP-92 NSCLC
HS 578T breast = tested on: HS 578T breast
HT29 colon = tested on: HT29 colon
IGROV1 ovarian = tested on: IGROV1 ovarian
K-562 leukemia = tested on: K-562 leukemia
KM12 colon = tested on: KM12 colon
LOX IMVI melanoma = tested on: LOX IMVI melanoma
M14 melanoma = tested on: M14 melanoma
MALME-3M melanoma = tested on: MALME-3M melanoma
MCF7 breast = tested on: MCF7 breast
MDA-MB-231 breast = tested on: MDA-MB-231 breast
MDA-MB-435 = tested on: MDA-MB-435
MOLT-4 leukemia = tested on: MOLT-4 leukemia
NCI-H226 lung = tested on: NCI-H226 lung

O=C1[C@@H]2Cc3c([nH]c4ccccc34)[C@H](c3c(Cl)cccc3Cl)N2C(=O)CN1C1CCN(Cc2ccccc2)CC1
GI50 (786-0 renal): 2.5 µM
TGI (786-0 renal): 4.7 µM
GI50 (A498 renal): 3.49 µM
TGI (A498 renal): 12.4 µM
GI50 (A549 NSCLC): 2.68 µM
TGI (A549 NSCLC): 7.2 µM
GI50 (ACHN renal): 2.19 µM
TGI (ACHN renal): 4.15 µM
GI50 (BT-549 breast): 2.22 µM
TGI (BT-549 breast): 5.17 µM
GI50 (CAKI-1 renal): 1.81 µM
TGI (CAKI-1 renal): 4.79 µM
GI50 (CCRF-CEM leukemia): 4.33 µM
TGI (CCRF-CEM leukemia): > 14.3 µM
GI50 (COLO 205 colon): 4.09 µM
TGI (COLO 205 colon): > 14.3 µM
GI50 (DU-145 prostate): 4.55 µM
TGI (DU-145 prostate): > 14.3 µM
GI50 (EKVX NSCLC): 6.78 µM
TGI (EKVX NSCLC): > 14.3 µM
GI50 (HCC-2998 colon): 2.27 µM
TGI (HCC-2998 colon): 4.72 µM
GI50 (HCT-116 colon): 2.6 µM
TGI (HCT-116 colon): 5.49 µM
GI50 (HCT-15 colon): 2.52 µM
TGI (HCT-15 colon): 5.09 µM
GI50 (HL-60(TB) leukemia): 4.03 µM
TGI (HL-60(TB) leukemia): 13.6 µM
GI50 (HOP-62 NSCLC): 2.29 µM
TGI (HOP-62 NSCLC): 5.66 µM
GI50 (HOP-92 NSCLC): 1.55 µM
TGI (HOP-92 NSCLC): 7.25 µM
GI50 (HS 578T breast): 2.21 µM
TGI (HS 578T breast): 6.52 µM
GI50 (HT29 colon): 3.23 µM
TGI (HT29 colon): 8.02 µM
GI50 (IGROV1 ovarian): 2.07 µM
TGI (IGROV1 ovarian): 7.52 µM
GI50 (K-562 leukemia): 2.98 µM
TGI (K-562 leukemia): 7.56 µM
GI50 (KM12 colon): 4.59 µM
TGI (KM12 colon): > 14.3 µM
GI50 (LOX IMVI melanoma): 2.21 µM
TGI (LOX IMVI melanoma): 4.54 µM
GI50 (M14 melanoma): 2.42 µM
TGI (M14 melanoma): 6.47 µM
GI50 (MALME-3M melanoma): 2.3 µM
TGI (MALME-3M melanoma): 4.87 µM
GI50 (MCF7 breast): 2.13 µM
TGI (MCF7 breast): 4.61 µM
GI50 (MDA-MB-231 breast): 2.57 µM
TGI (MDA-MB-231 breast): 6.27 µM
GI50 (MDA-MB-435): 2.36 µM
TGI (MDA-MB-435): 4.81 µM
GI50 (MOLT-4 leukemia): 3.03 µM
TGI (MOLT-4 leukemia): 13.8 µM
GI50 (NCI-H226 lung): 10.6 µM
TGI (NCI-H226 lung): > 14.3 µM
